Test results published in patent US10894054B2, “FXR agonist compositions for combination therapy” (Intercept Pharmaceuticals, Inc., priority 2015, dated 2021).

Assays:
DIO-NASH mice = assay: Oral glucose tolerance test (OGTT); assay type: in vivo, male C57BL/6 mice; details: alone or combined, PO QD, DIO-NASH vehicle 1762 ± 45
Experimental: Blood samples were collected into 10 μL heparinized glass capillary tubes. The sample was immediately suspended in buffer (0.5 ml of glucose/lactate system solution (EKF-diagnostics, Germany) and analyzed for glucose on the test day using a BIOSEN c-Line glucose meter (EKF-diagnostics, Germany). For triglyceride and cholesterol content, 100 μl blood was collected into Lithium-Heparin tubes. Plasma was separated and samples were stored at 4° C. for one day prior to analysis.
In week 4 (LIRA and MET combinations) or week 6 (SIT combination) of treatment, an OGTT was performed in conscious free-moving animals. […] Animals were fasted for 4 h prior to test start (food removal from 6 AM to 10 AM). At t=0, mice received an oral bolus of glucose (2 g/kg) (200 mg/ml; Fresenius Kabi, Sweden) by oral gavage (10 ml/kg). Blood samples were collected from the tail vein (by snipping) and blood glucose was measured at time point 0, 15, 30, 60 and 120 minutes after the oral glucose administration. Mice were re-fed after the blood sampling and drug dosed as per usual.

[1] = system: HFD-induced rabbit model of MetS; details: cited from earlier work
[2] = high dose: OCA 30 mg/kg, MET 150 mg/kg
[3] = low dose: OCA 10 mg/kg, MET 50 mg/kg
[4] = HFD rabbits, in vivo OCA dosing

CN(C)C(=N)N=C(N)N [MET, metformin, reference compound]
OGTT Blood Glucose AUC, Week 4 (DIO-NASH mice; [2]): 1480 ± 53 mmol·min/L
OGTT Blood Glucose AUC, Week 4 (DIO-NASH mice; [3]): 1698 ± 31 mmol·min/L

CC[C@H]1[C@@H](O)[C@@H]2[C@H](CC[C@]3(C)[C@@H]([C@H](C)CCC(=O)O)CC[C@@H]23)[C@@]2(C)CC[C@@H](O)C[C@@H]12 [OCA, 3α,7α-dihydroxy-6α-ethyl-5β-cholan-24-oic acid]
adipocyte size, hypoxia, and expression of perilipin and GLUT4 (SLC2A4) in VAT ([1]; HFD rabbits vs rabbits on a control diet, immunohistochemistry, Western blot, RT-PCR): normalizes
amount of visceral AT (VAT) [1, 4]: marked reduction
expression of steatosis and inflammation markers [1, 4]: normalizes
insulin resistance and metabolic profile [1, 4]: ameliorates insulin resistance and the metabolic profile
OGTT Blood Glucose AUC, Week 4 (DIO-NASH mice; [2]): 1778 ± 88 mmol·min/L
OGTT Blood Glucose AUC, Week 4 (DIO-NASH mice; [3]): 1680 ± 71 mmol·min/L
